Test results published in PubChem BioAssay (NCI).
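Results reflect a 48-hour exposure of cells in 96-well plates to compound at five concentrations. TGI: total growth inhibition.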

Tests used:
Test in all cases: NCI anticancer screen, dose series, 48 h
SF-268 CNS = test system: SF-268 CNS
MDA-MB-435 = test system: MDA-MB-435
NCI-H460 lung = test system: NCI-H460 lung
ACHN renal = test system: ACHN renal
OVCAR-8 ovarian = test system: OVCAR-8 ovarian
SF-295 CNS = test system: SF-295 CNS
BT-549 breast = test system: BT-549 breast
A498 renal = test system: A498 renal
CAKI-1 renal = test system: CAKI-1 renal
UO-31 renal = test system: UO-31 renal
MDA-N = test system: MDA-N
OVCAR-3 ovarian = test system: OVCAR-3 ovarian
SN12C renal = test system: SN12C renal
SK-MEL-28 melanoma = test system: SK-MEL-28 melanoma
A549 NSCLC = test system: A549 NSCLC
NCI-H23 lung = test system: NCI-H23 lung
MCF7 breast = test system: MCF7 breast
T-47D breast = test system: T-47D breast
HS 578T breast = test system: HS 578T breast
OVCAR-5 ovarian = test system: OVCAR-5 ovarian
HL-60(TB) leukemia = test system: HL-60(TB) leukemia
DU-145 prostate = test system: DU-145 prostate
UACC-62 melanoma = test system: UACC-62 melanoma
SNB-75 CNS = test system: SNB-75 CNS
NCI/ADR-RES ovarian = test system: NCI/ADR-RES ovarian
U251 CNS = test system: U251 CNS
MDA-MB-231 breast = test system: MDA-MB-231 breast
COLO 205 colon = test system: COLO 205 colon
SK-OV-3 ovarian = test system: SK-OV-3 ovarian
IGROV1 ovarian = test system: IGROV1 ovarian
HCT-116 colon = test system: HCT-116 colon
CCRF-CEM leukemia = test system: CCRF-CEM leukemia
SK-MEL-5 melanoma = test system: SK-MEL-5 melanoma
HCT-15 colon = test system: HCT-15 colon
RPMI-8226 leukemia = test system: RPMI-8226 leukemia
PC-3 prostate = test system: PC-3 prostate
RXF 393 renal = test system: RXF 393 renal
SK-MEL-2 melanoma = test system: SK-MEL-2 melanoma
SF-539 CNS = test system: SF-539 CNS
LOX IMVI melanoma = test system: LOX IMVI melanoma
HCC-2998 colon = test system: HCC-2998 colon
MALME-3M melanoma = test system: MALME-3M melanoma
NCI-H226 lung = test system: NCI-H226 lung
786-0 renal = test system: 786-0 renal
SNB-19 CNS = test system: SNB-19 CNS
OVCAR-4 ovarian = test system: OVCAR-4 ovarian
EKVX NSCLC = test system: EKVX NSCLC
NCI-H522 lung = test system: NCI-H522 lung
MOLT-4 leukemia = test system: MOLT-4 leukemia
HT29 colon = test system: HT29 colon
M14 melanoma = test system: M14 melanoma
SW-620 colon = test system: SW-620 colon
UACC-257 melanoma = test system: UACC-257 melanoma
HOP-62 NSCLC = test system: HOP-62 NSCLC
TK-10 renal = test system: TK-10 renal
KM12 colon = test system: KM12 colon

Measured: TGI

O=S(=O)(O)c1cc(S(=O)(=O)O)c2c(Nc3ccnc4ccccc34)ccc(S(=O)(=O)O)c2c1
> 100 µM: all assays above
